We go through 4 compounds from PMC6073854, “Role of Arginine 117 in Substrate Recognition by Human Cytochrome P450 2J2” (International Journal of Molecular Sciences, 2018).

Changes are numbered by the printed parent chain. “And” between values parts separate entries of the source, which are not always exact repeats. Equal values may be shown once.

One series addresses T1, wild-type CYP2J2 (Homo sapiens, UniProt P51589).
T1 sequence (P51589 1-502): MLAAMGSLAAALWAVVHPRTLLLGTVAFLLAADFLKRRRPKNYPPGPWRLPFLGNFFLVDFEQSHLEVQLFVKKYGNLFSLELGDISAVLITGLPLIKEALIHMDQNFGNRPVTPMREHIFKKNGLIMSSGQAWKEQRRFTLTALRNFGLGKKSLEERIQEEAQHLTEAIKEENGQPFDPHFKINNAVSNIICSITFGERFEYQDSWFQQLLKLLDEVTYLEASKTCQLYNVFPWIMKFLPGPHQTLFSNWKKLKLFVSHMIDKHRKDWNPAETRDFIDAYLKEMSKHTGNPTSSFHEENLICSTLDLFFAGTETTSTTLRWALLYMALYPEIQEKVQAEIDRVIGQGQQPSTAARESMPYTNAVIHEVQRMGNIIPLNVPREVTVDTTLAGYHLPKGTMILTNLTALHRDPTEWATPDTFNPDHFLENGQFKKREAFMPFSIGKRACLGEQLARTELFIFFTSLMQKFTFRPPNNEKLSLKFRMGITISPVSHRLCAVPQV
The settings on record: cited from earlier work.

The next series has as its target T2, CYP2J2-R117K (Homo sapiens, UniProt P51589, R117K).
T2 sequence (P51589 1-502 R117K): T1 sequence (P51589 1-502) with R117K
As to the kind of experiment: biochemical.

The target of another series is T3, CYP2J2-R117E (Homo sapiens, UniProt P51589, R117E).
T3 sequence (P51589 1-502 R117E): T1 sequence (P51589 1-502) with R117E
As to the kind of experiment: biochemical.

A further series concerns wild type CYP2J2. More on the design: method as in PMID 17705402. The settings on record: docked model, WT; values previously reported ref 50; cited from earlier work.

As for `CC(C)(C)c1ccc(C(=O)CCCN2CCC(C(O)(c3ccccc3)c3ccccc3)CC2)cc1` [Terfenadone 1, Terfenadone], the IC50 (as a rule, the concentration needed to halve the response being measured) at wild-type CYP2J2 is 700 ± 100 nM; against CYP2J2-R117K it was about 1 µM; against CYP2J2-R117E, 500 nM and 1000 nM.
Consider `CCCc1ccc(CCCCN2CCC(C(O)(c3ccccc3)c3ccccc3)CC2)cc1` [Compound 4], for which the values for the IC50 on wild-type CYP2J2, against CYP2J2-R117K and on CYP2J2-R117E were 4500 ± 900 nM, 13.2 ± 0.1 µM and 2900 ± 200 nM, respectively.
Regarding `CCCc1ccc(C(=O)CCCN2CCC(C(O)(c3ccccc3)c3ccccc3)CC2)cc1` [Compound 2], in the series on wild type CYP2J2, the “Fe-C distance, α carbon of R group” value was 4.9 Å; the “Fe-C distance, β carbon of R group” value is 3.8 Å; the “Fe-C distance, γ carbon of R group” value was 4.6 Å. Moreover, the IC50 at wild-type CYP2J2 is 400 ± 100 nM. At CYP2J2-R117K, this compound gave an IC50 of 1.1 ± 0.2 µM. Also, at CYP2J2-R117E, the IC50 was 1000 nM and 500 nM.
Take `CC(C)(C)c1ccc(CCCCN2CCC(C(O)(c3ccccc3)c3ccccc3)CC2)cc1` [Compound 3]: the IC50 was 3600 ± 700 nM at wild-type CYP2J2, 8.6 ± 0.2 µM on CYP2J2-R117K and 2100 ± 400 nM at CYP2J2-R117E.
